What was measured:
[1] = tested on: primary neurons incubated with oligomeric Aβ42; experiment: Aβ42-induced cell death in primary neurons co-cultured with N9 cells (MTT viability); assay type: cell-based, mice; conditions: primary neurons incubated with oligomeric Aβ42 (200 nM), NBMI 10 nM pre-treatment 30 minutes, FIG. 1
Procedure: (§1) Aβ42 stock was solubilized in DMSO at a concentration of 2 mM, vortexed and sonicated for 2 minutes to ensure complete dissolution. Aβ42 was diluted in 50 mM NaPi, 100 mM NaCl (pH 7.4) buffer at a concentration of 200 μM and was used within 3 hours at a final concentration of 200 nM.
Primary cultures of cortical neurons were prepared from the cerebral cortex of mice at embryonic stage 17 (E17). The cells from each cortex were seeded separately on poly-L-ornithine (Sigma) pre-coated 6-well plates at a density of 0.25×10^6 cells/cm^2 in Neurobasal media containing B27 supplement with antioxidant, 1% penstrep and 1% glutamine.
(§2) After 10 days' incubation, neurons were used in experiments. Where indicated, cells were pre-treated for 30 minutes with NBMI (10 nM) added directly to the cell culture medium.
To determine cell viability, cells were washed with PBS (pH 7.4). MTT solution (3-(4,5-dimethylthiazol-2yl)-2,5-diphenyl tetrazolium bromide) was added to cells for 30 minutes at 37° C. After three washes, the insoluble formazan product was dissolved in dimethyl sulfoxide. The optical density of each culture well was then measured using a micro-plate reader (Molecular Probes, Garching, Germany) at 550 nm. The optical density of formazan formed in control cells was taken as 100% of viability. […]

A549 and BEAS-2B cells = experiment: Particle-induced secretion of pro-inflammatory cytokines in lung epithelial cell lines (overall); assay type: cell-based
Procedure: Secretion of the pro-inflammatory cytokines interleukin (IL)-6, IL-8 (as well as GM-CSF and MCP-1) into cell media in response to particle exposure was measured in A549 and BEAS-2B cells using the following method.
Lung epithelial cells were seeded at 5×10^4 in 24-well plates. After pre-incubation with NBMI, the antioxidant compound, N-acetyl-L-cysteine (NAC), which was used as a positive control, or vehicle, for 3 hours the medium was removed.
Fresh media containing various particles (as below) in different concentrations was in a total volume of 0.5 ml for an additional 24 hours. The supernatants were then separated from the cells by centrifugation.
IL-8, IL-6, GM-CSF and MCP-1 were measured in the cell free fluid using the DuoSet ELISA Development kit (R&D Systems, Abingdon, UK) according to manufacturer's protocol.
Exposure to medium only served as negative control. Each experiment was performed twice with 4 replicates.
The effect of pre-incubation with 50 μM NBMI on particle-induced cytokine formation was tested at various concentrations of particles.

microglia = experiment: Internalization of Aβ42 by microglia; assay type: cell-based; conditions: following Aβ42 administration; FIG. 2B
Procedure: as §1
(§3) TNF-α secretion from primary microglia and the BV2 cell line was valued by a specific sandwich-type enzyme-linked immunoabsorbent assay (ELISA) (Duoset, R&D system) according to the manufacturer's instructions. Intracellular concentration of Aβ42 was measured using a specific sandwich-type ELISA assay (human Aβ42 kit, Invitrogen, KHB3441 and mouse/rat, IBL 27721; Immuno-Biological Laboratories Co., Ltd., Japan) according to the manufacturer's instructions.
N9 cells were treated with 200 nM Aβ42488 (Anaspect), and AR internalization was recorded in culture for 24 hours after AR administration using a CelIR microscope, with the image processed using CelIR software.

TNF-α = experiment: Primary microglia activation (TNF-α release, ELISA) following Aβ42 administration; assay type: cell-based; conditions: FIG. 2A
Procedure: as §1, §2, §3

Aβ42 = target: T1, Aβ42 (Homo sapiens, UniProt P05067); experiment: Aggregation state of Aβ42 in media and cell lysate of primary microglia cultures (ELISA); assay type: cell-based; conditions: in the media and in the cell lysate, FIG. 3
T1 construct: Aβ42 stock was solubilized in DMSO at a concentration of 2 mM; host or cells: added to primary microglia cultures
Procedure: Aβ42 stock was solubilized in DMSO at a concentration of 2 mM, vortexed and sonicated for 2 minutes to ensure complete dissolution. Aβ42 was diluted in 50 mM NaPi, 100 mM NaCl (pH 7.4) buffer at a concentration of 200 μM and was used within 3 hours at a final concentration of 200 nM. TNF-α secretion from primary microglia and the BV2 cell line was valued by a specific sandwich-type enzyme-linked immunoabsorbent assay (ELISA) (Duoset, R&D system) according to the manufacturer's instructions. Intracellular concentration of Aβ42 was measured using a specific sandwich-type ELISA assay (human Aβ42 kit, Invitrogen, KHB3441 and mouse/rat, IBL 27721; Immuno-Biological Laboratories Co., Ltd., Japan) according to the manufacturer's instructions. Homogenization was performed with a cold 4× volume of PBS supplemented with the 1× protease inhibitor cocktail, followed by the addition of a solution 8.2 M guanidine/82 mM Tris HCl (pH 8.0) to yield a solution with a 5M final guanidine concentration.

T1 sequence (P05067 672-713 limits assumed): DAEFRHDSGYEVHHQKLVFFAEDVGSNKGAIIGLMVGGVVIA

Structure (SMILES) | Aβ42-induced cell death [1] | particle-induced secretion of pro-inflammatory cytokines (A549 and BEAS-2B cells; both cell lines (A549, BEAS-2B), pre-incubation with 50 μM NBMI) | internalization of Aβ42 by microglia (microglia) | primary microglia activation (evaluated as TNF-α release) (TNF-α) | aggregation state of Aβ42 (Aβ42) | secretion of inflammatory cytokines (A549 and BEAS-2B cells; pre-incubation with 5 mM NAC (positive control))
O=C(NCCS)c1cccc(C(=O)NCCS)c1 [NBMI, N,N-bis-2-mercaptoethyl isophthalamide] | reduced | can reduce | modulated | blocked | changed | 
CC(=O)N[C@@H](CS)C(=O)O [NAC, N-acetyl-L-cysteine, reference compound] |  |  |  |  |  | effective in reducing

Reference: patent US11628151B2, “N,N-bis-2-mercaptoethyl isophthalamide for the treatment of neurodegenerative diseases” (EMERAMED LIMITED, priority 2014, dated 2023)
